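Method: 48-hour compound exposure of cells in 96-well plates, five concentrations, linear interpolation of endpoints. At the GI50, growth is halved. TGI: concentration producing complete growth inhibition.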
Tests used:
Assay in all cases: NCI anticancer screen, dose series, 48 h
SF-268 CNS = system: SF-268 CNS
MCF7 breast = system: MCF7 breast
CAKI-1 renal = system: CAKI-1 renal
A498 renal = system: A498 renal
K-562 leukemia = system: K-562 leukemia
SN12C renal = system: SN12C renal
HL-60(TB) leukemia = system: HL-60(TB) leukemia
HCT-116 colon = system: HCT-116 colon
HCT-15 colon = system: HCT-15 colon
SR leukemia = system: SR leukemia

Row | Compound | GI50 (SF-268 CNS) [µM] | TGI (SF-268 CNS) [µM] | GI50 (MCF7 breast) [µM] | TGI (MCF7 breast) [µM] | GI50 (CAKI-1 renal) [µM] | TGI (CAKI-1 renal) [µM] | GI50 (A498 renal) [µM] | TGI (A498 renal) [µM] | GI50 (K-562 leukemia) [µM] | TGI (K-562 leukemia) [µM] | GI50 (SN12C renal) [µM] | TGI (SN12C renal) [µM] | GI50 (HL-60(TB) leukemia) [µM] | TGI (HL-60(TB) leukemia) [µM] | GI50 (HCT-116 colon) [µM] | TGI (HCT-116 colon) [µM] | GI50 (HCT-15 colon) [µM] | TGI (HCT-15 colon) [µM] | TGI (SR leukemia) [µM] | GI50 (SR leukemia) [µM]
1 | COc1cccc(NC(=O)c2ccc(NC3=C(Cl)C(=O)N(Cc4ccccc4)C3=O)cc2)c1 | 17.5 | 37.4 | 3.9 | 17.8 | 15.3 | 30.9 | 22.2 | 48.9 | 18.9 | 47.2 | 17.6 | 37.1 | 11.9 | 29 | 15 | 28.3 | 1.4 | 2.71 |  | 
2 | CC1=CC2=C(C#N)C(=O)OC2(C)C(c2ccccc2)C1 (stereo not drawn) |  | > 100 |  |  |  |  |  | > 100 |  | > 100 |  | > 100 |  |  |  | > 100 |  | > 100 |  | 
3 | COc1cc(/C=C2\Cc3ccccc3C2=O)cc(OC)c1OC |  | > 100 |  |  |  | > 100 |  |  |  | > 100 |  | > 100 |  | > 100 |  | > 100 |  | > 100 |  | 
4 | C/C(=N\NS(=O)(=O)c1c(C)cc(C)cc1C)c1ccc[n+]([O-])n1 |  | 53.7 |  |  |  | 18.1 |  | 86.6 |  | 30.2 |  | 29.2 |  | 25.1 |  | 25.7 |  | 28.5 | 57.7 | 
5 | C=C1C(=O)O[C@H]2[C@H]1CC/C(Cn1cc(-c3ccsc3)nn1)=C\CC[C@@]1(C)O[C@@H]21 | 2.53 | 8.15 |  |  | 1.06 | 2.25 | 2.65 | 12.6 | 2.51 | 11.7 | 2.45 | 7.33 | 1.91 | 7 | 1.16 | 2.76 | 1.11 | 2.54 | 9.39 | 0.56
6 | Fc1ccc2c(c1)cc1ccc3cccc4ccc2c1c34 |  | > 100 |  |  |  | > 100 |  | > 100 |  | > 100 |  | > 100 |  | > 100 |  | > 100 |  |  | > 100 | 
7 | COc1ccc(NS(=O)(=O)c2ccc(N=C3C=C(Nc4ccc(S(=O)(=O)Nc5ccc(OC)nn5)cc4)C(=O)c4ccccc43)cc2)nn1 |  | 52.9 |  |  |  | 40.7 |  | 29 |  | > 100 |  | 38.6 |  | > 100 |  | 32 |  | 32.4 | > 100 | 
8 | COc1ccc2c(c1OC)C(C=C(c1ccccc1)c1ccccc1)CN(C)C2 (stereo not drawn) |  | 72.2 |  |  |  | 45.3 |  | 65 |  | 25.1 |  | > 100 |  |  |  | 20.7 |  | 33 |  | 
9 | O=C(COC(=O)c1cccc2c(=O)c3ccccc3[nH]c12)Nc1ccc(S(=O)(=O)Nc2ncccn2)cc1 |  | > 100 |  |  |  | > 100 |  | > 100 |  | 90.7 |  | > 100 |  | 71.3 |  | > 100 |  | > 100 | 91 | 
10 | CN=C(N)NC |  | > 100 |  |  |  |  |  | > 100 |  | > 100 |  | > 100 |  | > 100 |  | > 100 |  | > 100 | > 100 | 
11 | CC(C)c1cc(C(=O)[O-])c(O)c(C(C)C)c1.CC(C)c1cc(C(=O)[O-])c(O)c(C(C)C)c1.CC(C)c1cc(C(=O)[O-])c(O)c(C(C)C)c1.CC(C)c1cc(C(=O)[O-])c(O)c(C(C)C)c1.CC(C)c1cc(C(=O)[O-])c(O)c(C(C)C)c1.CC(C)c1cc(C(=O)[O-])c(O)c(C(C)C)c1.[Cu+2].[Mn+2].[Mn+2] | 35.5 | 82.7 |  |  | 30.9 | 53.3 | 34.1 | 82.2 | 12.8 | 50.4 | 20.9 | 49 | 17.7 | 53.9 | 21.2 | 37.8 | 39.3 | > 100 |  | 
12 | COc1cc2ccc3c4cc(OC)c(OC(C)C)cc4c[n+](C)c3c2cc1OC |  | > 100 |  |  |  | > 100 |  |  |  | > 100 |  | > 100 |  | > 100 |  | > 100 |  | > 100 | > 100 | 
13 | O=C(CC1SC(=Nc2ccccc2Cl)NC1=O)Nc1ccc(Cl)cc1 (stereo not drawn) |  | > 100 |  |  |  | > 100 |  | > 100 |  | > 100 |  | > 100 |  | > 100 |  | > 100 |  | 30.8 | 69.9 | 
14 | CC(C)C1NC(=O)[C@H](C)OC(=O)[C@@H](C(C)C)NC(=O)[C@@H](C)OC(=O)C(C(C)C)NC(=O)[C@H](C)OC1=O (stereo partly drawn) |  | > 100 |  |  |  | > 100 |  | > 100 |  | > 59.3 |  | > 100 |  | > 100 |  | > 100 |  | 34.2 | 72.9 | 
15 | CC(=O)OC1(C#N)CC2OC1C1N=NN(C(=O)OC(C)(C)C)C21 (stereo not drawn) |  | > 100 |  |  |  | > 31.6 |  | > 100 |  | > 100 |  | > 100 |  | 79.4 |  | 15.5 |  | 22.5 | 57.8 | 
16 | CC(C)(C)C1CCC(=O)C(C(O)CC2CC(=O)N(c3ccccc3)C(=O)C2)C1 (stereo not drawn) |  | > 100 |  |  |  | > 100 |  | > 100 |  | > 100 |  | > 100 |  | > 100 |  | > 100 |  | > 100 | > 100 | 
17 | N.N.NCCCCCN.O=C([O-])CC(=O)[O-].O=C([O-])CC(=O)[O-].[Pt+4].[Pt+4] | 71.4 | > 100 |  |  |  |  | > 100 | > 100 | > 100 | > 100 | 45.6 | > 100 | 39.6 | > 100 | > 100 | > 100 | > 100 | > 100 | > 100 | 58.6
18 | O=C(Nc1ccc(N2CCNCC2)cn1)c1[nH]ncc1Nc1ncnc2sccc12 |  |  | 1.71 | 4.17 | 3.89 | > 100 | 13.4 | 31.5 |  |  | 4.27 | 18.8 | 2.99 | 22.6 | 1.15 | 3.09 | 8.3 | > 100 |  | 
19 | Cn1cc2ccccc2c1-c1nc(F)nc(Nc2ccc(N)cc2)n1 |  | 56.3 |  |  |  | 45 |  | 21.6 |  | > 100 |  | 47.4 |  | > 100 |  | 35.1 |  | 26.3 | 72.4 | 

— PubChem BioAssay (NCI)
